According to US7531555B2, “Compositions and methods for selective inhibition of nicotine acetylcholine receptors” (University of Florida Research Foundation, Inc., priority 2003, dated 2009):
Read-outs that look alike come from different tables or passages of the source.

What was measured:
mice = experiment: Hot-plate test, blockade of nicotine-induced antinociception; type: in vivo
Procedure: Animals. Male ICR mice (20-25 g) obtained from Harlan Laboratories (Indianapolis, Ind.) were used throughout the study. Animals were housed in groups of six and had free access to food and water. Adult, male Long-Evans rats (350-460 g), obtained from Harlan (Dublin, Va.), were individually housed in a temperature-controlled (20-22° C.) environment with a 12-hour light-dark cycle (lights on at 7 a.m.). Rats were maintained within the indicated weight range by restricted post-session feeding and had ad libitum water in their home cages. Rats were drug-naive at the beginning of the study. Animals were housed in an AALAC approved facility and the study was approved by the Institutional Animal Care and Use Committee of Virginia Commonwealth University.
2. Hot-plate Test. Mice were placed into a 10 cm wide glass cylinder on a hot plate (Thermojust Apparatus) maintained at 55.0° C. Two control latencies at least 10 minutes apart were determined for each mouse. […] Antinociceptive response was calculated as percent maximum possible effect (% MPE), where % MPE=[(test-control)/(40-control)×100]. The reaction time was scored when the animal jumped or licked its paws. […]
The doses of nicotine used in the different tests represent approximately an ED84 (Effective dose 84%) which were determined from previous works (Damaj et al. Psychopharmacology (Berl), 1995, 117:67-73). […]

Rat α3β4 = target: T1, Rat α3β4 (Rattus norvegicus, UniProt P04757+P12392); experiment: Voltage clamp of Xenopus oocytes expressing α3β4 nAChR; type: cell-based
T1 construct: expressed in transfected cells; host or cells: Xenopus laevis oocytes injected with subunit cRNAs; clones from Dr. Jim Boulter (UCLA)
Procedure: Mature (>9 cm) female Xenopus laevis African frogs (NASCO, Ft. Atkinson, Wis.) were used as a source of oocytes. Prior to surgery, frogs were anesthetized by placing the animal in a 1.5 g/l solution of MS222 (3-aminobenzoic acid ethyl ester) for 30 minutes. Oocytes were removed from an incision made in the abdomen.
In order to remove the follicular cell layer, harvested oocytes were treated with 1.25 mg/ml collagenase from Worthington Biochemical Corporation (Freehold, N.J.) for 2 hours at room temperature in calcium-free Barth's solution (88 mM NaCl, 10 mM HEPES pH 7.6, 0.33 mM MgSO4, 0.1 mg/ml gentamicin sulfate). Subsequently, stage 5 oocytes were isolated and injected with 50 nl (5-20 ng) each of the appropriate subunit cRNAs. Recordings were made 2 to 15 days after injection.
Rat neuronal nAChR clones and mouse muscle nAChR cDNA clones were used. The wild-type clones were obtained from Dr. Jim Boulter (UCLA). The rat α6/3 (Dowell et al. J Neurosci, 2003, 23:8445-8452) clone was obtained from Michael McIntosh (University of Utah) and expressed in Xenopus oocytes in combinations with rat β2 and β3. […] The TM2 domain is understood to line the pore of the channel, with alpha helix structure. The 7′ position may actually be directed away from the actual pore lining, but this residue is highly conserved in all of the nAChR. It is valine in all of them except α9 (isoleucine) and β1, where it is alanine. The TM2 mutation in the α6/3 chimera was corrected by using QuickChange (Stratagene) according to their protocols. The corrected α6/3 chimera sequence was confirmed by restriction diagnostics and by automated fluorescent sequencing (University of Florida core facility). The corrected clone was expressed as above in Xenopus oocytes with β2 and β3 and compared to the wild-type α3 co-expressed with β2 and β3.
After linearization and purification of cloned cDNAs, RNA transcripts were prepared in vitro using the appropriate mMessage mMachine kit from Ambion Inc. (Austin, Tex.).
Electrophysiology. The majority of experiments were conducted using OpusXpress 6000A (Axon Instruments, Union City Calif.). OpusXpress is an integrated system that provides automated impalement and voltage clamp of up to eight oocytes in parallel. Cells were automatically perfused with bath solution, and agonist solutions were delivered from a 96-well plate. Both the voltage and current electrodes were filled with 3 M KCl. The agonist solutions were applied via disposable tips, which eliminated any possibility of cross-contamination. Drug applications alternated between ACh controls and experimental applications. Flow rates were set at 2 ml/min for experiments with α7 receptors and 4 ml/min for other subtypes. Cells were voltage-clamped at a holding potential of −60 mV. Data were collected at 50 Hz and filtered at 20 Hz. Agonist applications were 12 seconds in duration followed by 181-second washout periods for α7 receptors and 8 seconds with 241-second wash periods for other subtypes. For some experiments, particularly under conditions where residual inhibition precluded making repeated measurements from single cells (see below), manual oocyte recordings were made as previously described (Papke and Papke Br J of Pharmacol, 2002, 137:49-61). In brief, Warner Instruments (Hamden, Conn.) OC-725C oocyte amplifiers were used, and data were acquired with a minidigi or digidata 1200A with pClamp9 software (Axon Instruments). Sampling rates were between 10 and 20 Hz and the data were filtered at 6 Hz. Cells were voltage clamped at a holding potential of −50 mV.
Experimental protocols and data analysis. Each oocyte received two initial control applications of ACh, an experimental drug application (or co-application of ACh and TMPH), and then follow-up control application(s) of ACh. The control ACh concentrations for α1β1γδ, α3β4, α4β2, α3β2, α3β2α5, α3β2β3, α6/3β2β3 α6β4β3 and α7, receptors were 30 μM, 100 μM, 10 μM, 30 μM, 1 μM 100 μM 100 μM 100 μM and 300 μM, respectively. […]

T1 sequence (P04757 26-499): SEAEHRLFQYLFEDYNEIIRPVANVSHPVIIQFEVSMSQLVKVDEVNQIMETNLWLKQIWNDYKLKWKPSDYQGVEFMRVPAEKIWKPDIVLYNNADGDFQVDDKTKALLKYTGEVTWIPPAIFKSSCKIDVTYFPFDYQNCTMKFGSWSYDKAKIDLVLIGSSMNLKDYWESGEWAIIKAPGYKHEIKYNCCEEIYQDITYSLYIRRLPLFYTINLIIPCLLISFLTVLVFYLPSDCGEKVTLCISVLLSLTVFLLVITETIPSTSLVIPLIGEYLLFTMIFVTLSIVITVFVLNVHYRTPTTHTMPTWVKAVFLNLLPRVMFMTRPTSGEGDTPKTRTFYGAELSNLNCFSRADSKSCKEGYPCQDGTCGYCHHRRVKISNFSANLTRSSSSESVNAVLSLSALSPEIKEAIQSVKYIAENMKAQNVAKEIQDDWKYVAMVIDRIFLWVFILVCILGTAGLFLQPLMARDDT
T1 sequence (P12392 21-495): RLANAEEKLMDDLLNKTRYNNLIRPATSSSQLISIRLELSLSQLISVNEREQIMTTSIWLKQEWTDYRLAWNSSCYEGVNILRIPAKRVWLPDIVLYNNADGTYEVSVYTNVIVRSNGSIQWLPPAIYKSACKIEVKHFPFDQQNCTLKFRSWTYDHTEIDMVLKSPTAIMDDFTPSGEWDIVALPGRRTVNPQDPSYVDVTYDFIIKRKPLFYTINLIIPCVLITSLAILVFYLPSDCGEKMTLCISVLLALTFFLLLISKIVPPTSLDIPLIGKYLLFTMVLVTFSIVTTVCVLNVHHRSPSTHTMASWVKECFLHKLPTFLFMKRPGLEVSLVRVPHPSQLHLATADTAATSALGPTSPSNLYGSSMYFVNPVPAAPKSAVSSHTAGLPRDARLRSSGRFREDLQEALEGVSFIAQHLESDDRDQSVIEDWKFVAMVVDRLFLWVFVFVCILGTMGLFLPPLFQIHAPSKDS

For `CCCCCCC(=O)OC1CC(C)(C)NC(C)(C)C1` [TMPH, 2,2,6,6-tetramethylpiperidin-4-yl heptanoate], the “time at which nicotine's effect recovered fully to pre-treatment value, hot-plate” value (mice; pretreatment with TMPH 5 mg/kg) was 60 min, the “antinociception by TMPH itself, hot-plate” value (mice; s.c. injection, at the indicated doses and times) was “did not cause antinociception” and the reversibility of inhibition (Rat α3β4; after a 5-minute wash) was “persisted after the wash”. The IC50 (Rat α3β4; decrease in net charge, 100 μM ACh co-applied with TMPH, read-out: IC50 (area)) was 75 ± 23 nM, the IC50 (Rat α3β4; decrease in peak current amplitude, 100 μM ACh co-applied with TMPH, read-out: IC50 (peak)) was 200 ± 50 nM and the IC50 (Rat α3β4; inhibition still present after 5-minute wash, read-out: IC50 (recovery)) was 85 ± 32 nM. The “IC50 net charge/IC50 peak” value (Rat α3β4; ratio) was 0.36 and the “IC50 recovery/IC50 net charge” value (Rat α3β4; ratio) was 1.1.
